Data from patent publication US4605413A, “Stimulation of chemotaxis by chemotactic peptides” (The University of Alabama at Birmingham, priority 1983, dated 1986).
No end group written: not given here.

Tests used:
Type in all cases: cell-based
fibroblasts = experiment: Fibroblast chemotaxis in multi-blind well apparatus; conditions: for chemotactic activity of isolated hexapeptides: qualitative; for chemotactic activity in presence of antibody to elastin: polyclonal antibody to elastin present, FIG. 4; for Fibroblast Migration, Net Cells/HPF ± SEM: N = 15
Experimental: (§1) The chemotactic response of fibroblasts to a hexapeptide of the invention was measured using the techniques described in Senior et al, J. Clin. Invest., 70, 614-618 (1982), which is herein incorporated by reference. Although the actual conditions used may vary slightly, the following generally describes the experimental conditions.
(§2) Chemotaxis was determined in a multi-blind well apparatus using a polycarbonate membrane with 8-μm pores on top of a cellulose nitrate membrane having 0.45-μm pores to separate each well into upper and lower compartments. The lower compartment was filled with 240 μl of solution to be assayed (or control medium) and then covered with the membranes. In the upper compartment was placed 350 μl of cell suspension containing 1.2×10^5 cells/ml.
(§3) After both compartments of the wells were filled, the chemotaxis apparatus was placed in a humidified incubator at 37° C. in an atmosphere of 5% CO2 -95% air for several hours. The apparatus was then disassembled, and each membrane pair was removed and stained with hematoxylin. Cell migration was determined under high dry magnification (×400) by counting the cells that had moved to the interface between the two membranes and those on the lower membrane. Several high power fields (H.P.F.) were counted for each membrane. Multiple determinations of each experiment were conducted, and the results pooled. Cell migration is expressed as the net number of cells per H.P.F.; i.e., the number of cells per H.P.F. minus the number of cells per H.P.F. that migrated in response to control medium.

[1] = test system: young fibroblasts (not yet synthesizing elastin); experiment: Chemotaxis of young (immature) fibroblasts before and after induced differentiation; conditions: FIG. 2
Experimental: as §1, §2
as §3, with “The apparatus was then disassembled, and each membrane pair was removed and stained with hematoxylin.” left out, “Multiple determinations of each experiment were conducted, and the results pooled.” left out

Monocytes = experiment: Desensitization of monocyte chemotaxis by pre-exposure to elastin peptides; conditions: for % CONTROL: desensitized vs control; for Monocyte chemotaxis, CONTROL: no pre-exposure; for Monocyte chemotaxis, CONTROL / Monocyte chemotaxis, DESENSITIZED: mean of 15; for Monocyte chemotaxis, DESENSITIZED: pre-exposed to elastin peptides; for effect of pre-exposure to elastin-derived peptide fragments on monocyte chemotactic response: monocytes pre-exposed to elastin-derived peptide fragments, qualitative
[2] = FIG. 1, dose response of fibroblasts
[3] = chemoattractant at concentration for maximum chemotaxis

**Q.** Which “chemotactic activity of isolated hexapeptides” value (fibroblasts) does the source give for H-GVAPGV-OH [H--GVAPGV--OH] here?
**A.** chemotactic activity is also seen

**Q.** H-PGVGVA-OH [H--PGVGVA--OH] was tested. Which “chemotactic activity of isolated hexapeptides” value (fibroblasts) did it give?
**A.** chemotactic activity is also seen

**Q.** Which “chemotactic activity of isolated hexapeptides” value (fibroblasts) does the source give for H-VAPGVG-OH [H--VAPGVG--OH] here?
**A.** chemotactic activity is also seen

**Q.** How did the “chemotactic activity of isolated hexapeptides” value (fibroblasts) turn out when H-APGVGV-OH [H--APGVGV--OH] was run?
**A.** chemotactic activity is also seen

**Q.** platelet-derived growth factor [PDGF] was tested. Which “Fibroblast Migration, Positive Control” value (fibroblasts; PDGF, 10^-9 M) did it give?
**A.** 31 Cells/HPF

**Q.** What about the “chemotactic activity in presence of antibody to elastin” value (fibroblasts) of the same molecule?
**A.** has no effect on the chemotactic activity

**Q.** And the “migration of young fibroblasts” value [1]?
**A.** have the capacity to migrate

**Q.** How did the “% CONTROL” value (Monocytes; chemoattractant 10^-8 M) turn out when `CSCC[C@H](NC=O)C(=O)N[C@@H](CC(C)C)C(=O)N[C@@H](Cc1ccccc1)C(=O)O` [FMLP, formylmethionylleucylphenylalanine, reference compound] was run?
**A.** 77%

**Q.** What about the “Monocyte chemotaxis, CONTROL” value (Monocytes; chemoattractant 10^-8 M) of the same molecule?
**A.** 100 Cells per high power field

**Q.** And the “Monocyte chemotaxis, DESENSITIZED” value (Monocytes; chemoattractant 10^-8 M)?
**A.** 77 Cells per high power field

**Q.** And the “% CONTROL” value (Monocytes; chemoattractant 10^-9 M)?
**A.** 100%

**Q.** And the “Monocyte chemotaxis, CONTROL” value (Monocytes; chemoattractant 10^-9 M)?
**A.** 45 Cells per high power field

**Q.** What about the “Monocyte chemotaxis, DESENSITIZED” value (Monocytes; chemoattractant 10^-9 M) of the same molecule?
**A.** 45 Cells per high power field

**Q.** And the “effect of pre-exposure to elastin-derived peptide fragments on monocyte chemotactic response” value (Monocytes)?
**A.** pre-exposure has no effect on response

**Q.** Which results are given for “VGVAPG [VGVAPG, VAL--GLY--VAL--ALA--PRO--GLY]”?
**A.** concentration of greatest chemotactic activity (fibroblasts; [2]): 10^-9 M; concentrations at which chemotactic response was seen (fibroblasts; [2]): higher than 10^-11 M; nature of fibroblast response (chemotaxis vs random movement) (fibroblasts; Table 1 gradient analysis): chemotaxis and not simply stimulation of random movement; Fibroblast Migration, Net Cells/HPF ± SEM (fibroblasts; VGVAPG lower compartment 0, upper compartment 10^-8 M): -2 ± 0.5 Net Cells/HPF; Fibroblast Migration, Net Cells/HPF ± SEM (fibroblasts; VGVAPG lower compartment 0, upper compartment 10^-9 M): 0 ± 0.7 Net Cells/HPF; Fibroblast Migration, Net Cells/HPF ± SEM (fibroblasts; VGVAPG lower compartment 0, upper compartment 10^-10 M): 1 ± 0.6 Net Cells/HPF; Fibroblast Migration, Net Cells/HPF ± SEM (fibroblasts; VGVAPG lower compartment 10^-8 M, upper compartment 0): 27 ± 1.7 Net Cells/HPF; Fibroblast Migration, Net Cells/HPF ± SEM (fibroblasts; VGVAPG lower compartment 10^-8 M, upper compartment 10^-8 M): 1 ± 0.7 Net Cells/HPF; Fibroblast Migration, Net Cells/HPF ± SEM (fibroblasts; VGVAPG lower compartment 10^-8 M, upper compartment 10^-9 M): 3 ± 0.6 Net Cells/HPF; Fibroblast Migration, Net Cells/HPF ± SEM (fibroblasts; VGVAPG lower compartment 10^-8 M, upper compartment 10^-10 M): 13 ± 1.8 Net Cells/HPF; Fibroblast Migration, Net Cells/HPF ± SEM (fibroblasts; VGVAPG lower compartment 10^-9 M, upper compartment 0): 15 ± 1.7 Net Cells/HPF; Fibroblast Migration, Net Cells/HPF ± SEM (fibroblasts; VGVAPG lower compartment 10^-9 M, upper compartment 10^-8 M): 0 ± 0.6 Net Cells/HPF; Fibroblast Migration, Net Cells/HPF ± SEM (fibroblasts; VGVAPG lower compartment 10^-9 M, upper compartment 10^-9 M): 0 ± 0.4 Net Cells/HPF; Fibroblast Migration, Net Cells/HPF ± SEM (fibroblasts; VGVAPG lower compartment 10^-9 M, upper compartment 10^-10 M): 7 ± 1.3 Net Cells/HPF; Fibroblast Migration, Net Cells/HPF ± SEM (fibroblasts; VGVAPG lower compartment 10^-10 M, upper compartment 0): 4 ± 1.0 Net Cells/HPF; Fibroblast Migration, Net Cells/HPF ± SEM (fibroblasts; VGVAPG lower compartment 10^-10 M, upper compartment 10^-8 M): 1 ± 1.0 Net Cells/HPF; Fibroblast Migration, Net Cells/HPF ± SEM (fibroblasts; VGVAPG lower compartment 10^-10 M, upper compartment 10^-9 M): -3 ± 0.4 Net Cells/HPF; Fibroblast Migration, Net Cells/HPF ± SEM (fibroblasts; VGVAPG lower compartment 10^-10 M, upper compartment 10^-10 M): 2 ± 0.7 Net Cells/HPF; chemotactic activity of isolated hexapeptides (fibroblasts): most chemotactic of the isolated hexapeptides; chemotactic activity in presence of antibody to elastin (fibroblasts): blocks the chemotactic activity; migration of young fibroblasts [1]: do not migrate; % CONTROL (Monocytes; chemoattractant 10^-8 M): 0%; Monocyte chemotaxis, CONTROL (Monocytes; chemoattractant 10^-8 M): 70 Cells per high power field; Monocyte chemotaxis, DESENSITIZED (Monocytes; chemoattractant 10^-8 M): -4 Cells per high power field; % CONTROL (Monocytes; chemoattractant 10^-9 M): 0%; Monocyte chemotaxis, CONTROL (Monocytes; chemoattractant 10^-9 M): 42 Cells per high power field; Monocyte chemotaxis, DESENSITIZED (Monocytes; chemoattractant 10^-9 M): -2 Cells per high power field; effect of pre-exposure to elastin-derived peptide fragments on monocyte chemotactic response (Monocytes): no longer show chemotaxis

**Q.** With H-GVGVAP-OH [H--GVGVAP--OH] as the molecule, how does the “chemotactic activity of isolated hexapeptides” value (fibroblasts) read?
**A.** chemotactic activity is also seen

B1: C5A: activity derived from the fifth component of complement (C5a) (protein, UniProt P01031 678-751, looked up)
C5a anaphylatoxin: TLQKKIEEIAAKYKHSVVKKCCYDGACVNNDETCEQRAARISLGPRCIKAFTECCVVASQLRANISHKDMQLGR
modifications: C5a anaphylatoxin
**Q.** Which results are given for B1?
**A.** % CONTROL (Monocytes; [3]): 100%; Monocyte chemotaxis, CONTROL (Monocytes; [3]): 102 Cells per high power field; Monocyte chemotaxis, DESENSITIZED (Monocytes; [3]): 102 Cells per high power field; effect of pre-exposure to elastin-derived peptide fragments on monocyte chemotactic response (Monocytes): pre-exposure has no effect on response
